Measured values from patent US20260297085A1, “1 H-PYRROLO[2,3-B]PYRIDIN-4-YL]-2-OXOPYRROLIDINE-3-CARBONITRILE DERIVATIVES AS TYROSINE KINASE 2 (TYK2) INHIBITORS FOR THE TREATMENT OF INFLAMMATORY DISEASES” (BIOGEN MA INC., priority 2023, published 2026).

Tests used:
[1] = molecular target: JAK2 kinase activity on STAT5 in TF1 cells (Homo sapiens, UniProt O60674); assay: pSTAT5 cell assay (MSD; TF1 cells, 30 ng/mL IL-3 stimulation); assay type: cell-based; conditions: 30 ng/mL IL-3, 15 minutes
Method in brief: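 Serum-starved TF1 cells with native JAK2/STAT5 were pretreated 1 h with compound (10-point four-fold dilutions from 10 μM), then stimulated 15 min with 30 ng/mL IL-3. pSTAT5 in lysates quantified by MSD immunoassay; normalized percent activity fitted to a 4-parameter logistic curve for IC50.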

[2] = molecular target: T1, human JAK2 kinase domain (JH1) (Homo sapiens, UniProt O60674); assay: JH1 biochemical assay for JAK2 (ADP-Glo kinase assay, recombinant JH1 catalytic domain, JAK3-974 peptide, 15 μM ATP)
T1 construct: recombinantly generated catalytic kinase (also known as JH1) domain of human JAK1, JAK2, JAK3 and TYK2
Method in brief: (§1)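 Kinase 4 nM JAK1 / 0.2 nM JAK2 / 0.3 nM JAK3 / 2 nM TYK2; 50 μM peptide; 100 min. Unused ATP depleted, ADP→ATP, luciferase luminescence. 11-pt 3-fold series from 10 or 1 μM; normalized, 4PL fit → IC50.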

[3] = molecular target: JAK1 kinase activity on STAT3 in TF1 cells (Homo sapiens, UniProt P23458); assay: pSTAT3 cell assay (MSD; TF1 cells, 30 ng/mL IL-6 stimulation); assay type: cell-based; conditions: 30 ng/mL IL-6, 15 minutes
Method in brief: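 Serum-starved TF1 cells with endogenous JAK1/STAT3 were pretreated 1 h with compound in a 10-point four-fold dilution series from 10 μM, then stimulated with 30 ng/mL IL-6 for 15 min. pSTAT3 in lysates was quantified by MSD immunoassay, and IC50 came from 4-parameter logistic fits.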

[4] = molecular target: Tyk2 kinase activity on STAT4 in NK92 cells (Homo sapiens, UniProt P29597); assay: pSTAT4 cell assay (MSD; NK92 cells, 30 ng/mL IL2 stimulation); assay type: cell-based; conditions: 30 ng/mL IL2, 15 minutes
Method in brief: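 Serum-starved NK92 cells, which natively express Tyk2 and STAT4, were pretreated for 1 h with a 10-point 4-fold dilution series from 10 μM. They were then stimulated with 30 ng/mL IL2 for 15 min. Phospho-STAT in lysates was quantified by MSD with anti-STAT4 antibodies, and IC50 was obtained from 4-parameter logistic fits.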

[5] = molecular target: T2, human TYK2 kinase domain (JH1) (Homo sapiens, UniProt P29597); assay: JH1 biochemical assay for TYK2 (ADP-Glo kinase assay, recombinant JH1 catalytic domain, JAK3-974 peptide, 10 μM ATP)
T2 construct: recombinantly generated catalytic kinase (also known as JH1) domain of human JAK1, JAK2, JAK3 and TYK2
T2 sequence (P29597 897-1176 limits assumed): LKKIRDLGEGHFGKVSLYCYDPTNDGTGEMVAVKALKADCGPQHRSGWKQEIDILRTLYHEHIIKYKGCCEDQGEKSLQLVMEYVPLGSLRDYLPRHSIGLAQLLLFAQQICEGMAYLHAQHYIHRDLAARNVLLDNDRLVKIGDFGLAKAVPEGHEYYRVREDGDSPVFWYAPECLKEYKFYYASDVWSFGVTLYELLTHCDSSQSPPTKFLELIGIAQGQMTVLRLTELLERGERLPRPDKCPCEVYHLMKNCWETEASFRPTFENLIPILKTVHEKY
Method in brief: as §1

[6] = molecular target: T3, human JAK1 kinase domain (JH1) (Homo sapiens, UniProt P23458); assay: JH1 biochemical assay for JAK1 (ADP-Glo kinase assay, recombinant JH1 catalytic domain, JAK3-342 peptide, 35 μM ATP)
T3 construct: recombinantly generated catalytic kinase (also known as JH1) domain of human JAK1, JAK2, JAK3 and TYK2
Method in brief: as §1

[7] = molecular target: T4, human JAK3 kinase domain (JH1) (Homo sapiens, UniProt P52333); assay: JH1 biochemical assay for JAK3 (ADP-Glo kinase assay, recombinant JH1 catalytic domain, JAK3-974 peptide, 4 μM ATP)
T4 construct: recombinantly generated catalytic kinase (also known as JH1) domain of human JAK1, JAK2, JAK3 and TYK2
Method in brief: as §1

Sequence of JAK2 kinase activity on STAT5 in TF1 cells (O60674 whole entry): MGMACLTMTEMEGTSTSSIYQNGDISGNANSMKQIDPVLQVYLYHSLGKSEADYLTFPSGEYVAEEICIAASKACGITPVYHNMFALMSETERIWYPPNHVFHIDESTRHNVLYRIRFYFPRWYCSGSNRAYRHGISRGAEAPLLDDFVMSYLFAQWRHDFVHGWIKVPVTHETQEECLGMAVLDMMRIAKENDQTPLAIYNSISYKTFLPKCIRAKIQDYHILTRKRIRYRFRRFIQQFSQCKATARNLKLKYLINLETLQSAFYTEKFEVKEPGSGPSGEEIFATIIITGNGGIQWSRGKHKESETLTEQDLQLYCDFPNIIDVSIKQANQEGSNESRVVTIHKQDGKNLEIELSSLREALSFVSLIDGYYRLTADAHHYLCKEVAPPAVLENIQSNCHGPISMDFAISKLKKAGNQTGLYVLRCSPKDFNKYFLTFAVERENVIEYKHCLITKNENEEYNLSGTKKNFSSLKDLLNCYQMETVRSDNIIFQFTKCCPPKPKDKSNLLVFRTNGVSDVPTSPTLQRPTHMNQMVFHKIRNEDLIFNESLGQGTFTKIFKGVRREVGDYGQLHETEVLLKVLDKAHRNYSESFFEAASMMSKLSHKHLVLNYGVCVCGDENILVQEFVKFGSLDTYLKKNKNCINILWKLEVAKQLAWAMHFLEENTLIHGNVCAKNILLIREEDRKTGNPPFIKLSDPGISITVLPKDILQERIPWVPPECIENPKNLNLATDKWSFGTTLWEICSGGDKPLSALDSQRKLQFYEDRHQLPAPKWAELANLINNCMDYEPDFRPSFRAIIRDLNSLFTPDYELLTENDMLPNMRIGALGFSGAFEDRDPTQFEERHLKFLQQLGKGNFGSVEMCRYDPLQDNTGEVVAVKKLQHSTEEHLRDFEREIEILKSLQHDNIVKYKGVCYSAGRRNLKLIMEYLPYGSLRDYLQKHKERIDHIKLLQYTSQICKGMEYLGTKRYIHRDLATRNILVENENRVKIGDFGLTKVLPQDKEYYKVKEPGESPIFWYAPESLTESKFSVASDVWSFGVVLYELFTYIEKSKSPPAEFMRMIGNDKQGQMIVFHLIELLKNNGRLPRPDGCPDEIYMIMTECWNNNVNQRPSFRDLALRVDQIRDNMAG
T1 sequence (O60674 849-1124 limits assumed): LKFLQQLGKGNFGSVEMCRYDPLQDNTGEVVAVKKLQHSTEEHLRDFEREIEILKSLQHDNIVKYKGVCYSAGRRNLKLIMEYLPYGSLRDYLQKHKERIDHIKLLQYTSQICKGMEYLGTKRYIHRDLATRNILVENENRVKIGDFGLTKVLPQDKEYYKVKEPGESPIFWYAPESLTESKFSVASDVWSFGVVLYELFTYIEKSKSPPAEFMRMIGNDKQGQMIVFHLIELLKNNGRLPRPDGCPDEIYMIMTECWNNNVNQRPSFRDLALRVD
T4 sequence (P52333 822-1111 limits assumed): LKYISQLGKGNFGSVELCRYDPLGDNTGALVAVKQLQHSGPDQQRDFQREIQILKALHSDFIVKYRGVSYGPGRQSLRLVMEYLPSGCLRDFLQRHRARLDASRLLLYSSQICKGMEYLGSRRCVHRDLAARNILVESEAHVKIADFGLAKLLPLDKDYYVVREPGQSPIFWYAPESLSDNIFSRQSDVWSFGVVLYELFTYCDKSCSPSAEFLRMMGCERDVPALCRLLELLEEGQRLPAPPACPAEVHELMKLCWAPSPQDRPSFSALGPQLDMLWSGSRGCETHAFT
Sequence of JAK1 kinase activity on STAT3 in TF1 cells (P23458 whole entry): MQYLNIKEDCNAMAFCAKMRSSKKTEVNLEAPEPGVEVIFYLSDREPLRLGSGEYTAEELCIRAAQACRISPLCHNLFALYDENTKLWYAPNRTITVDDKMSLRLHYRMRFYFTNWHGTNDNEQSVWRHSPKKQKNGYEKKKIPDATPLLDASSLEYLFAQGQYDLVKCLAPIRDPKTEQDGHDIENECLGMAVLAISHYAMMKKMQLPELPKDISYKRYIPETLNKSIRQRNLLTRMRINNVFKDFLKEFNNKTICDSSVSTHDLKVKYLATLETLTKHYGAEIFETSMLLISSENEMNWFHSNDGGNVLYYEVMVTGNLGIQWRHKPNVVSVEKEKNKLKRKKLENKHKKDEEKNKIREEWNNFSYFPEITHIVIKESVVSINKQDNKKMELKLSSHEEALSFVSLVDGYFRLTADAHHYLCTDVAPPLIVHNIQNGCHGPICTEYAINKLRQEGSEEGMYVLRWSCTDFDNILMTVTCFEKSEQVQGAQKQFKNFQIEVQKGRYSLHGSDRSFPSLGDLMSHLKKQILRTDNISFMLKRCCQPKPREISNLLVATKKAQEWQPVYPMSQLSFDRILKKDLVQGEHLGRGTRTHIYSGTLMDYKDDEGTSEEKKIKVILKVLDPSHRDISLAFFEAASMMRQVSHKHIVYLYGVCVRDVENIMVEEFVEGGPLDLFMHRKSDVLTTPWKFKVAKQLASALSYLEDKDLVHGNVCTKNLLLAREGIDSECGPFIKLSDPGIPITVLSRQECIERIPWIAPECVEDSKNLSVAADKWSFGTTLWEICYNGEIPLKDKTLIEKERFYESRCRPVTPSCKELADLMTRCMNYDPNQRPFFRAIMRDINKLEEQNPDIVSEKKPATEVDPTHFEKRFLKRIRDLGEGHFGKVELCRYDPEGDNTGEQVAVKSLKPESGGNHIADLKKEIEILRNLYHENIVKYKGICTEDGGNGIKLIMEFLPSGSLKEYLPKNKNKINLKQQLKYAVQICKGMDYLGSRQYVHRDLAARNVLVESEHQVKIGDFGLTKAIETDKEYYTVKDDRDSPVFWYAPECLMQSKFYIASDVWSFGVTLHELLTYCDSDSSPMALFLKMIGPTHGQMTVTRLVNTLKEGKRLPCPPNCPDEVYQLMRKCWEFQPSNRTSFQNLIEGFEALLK
T3 sequence (P23458 875-1153 limits assumed): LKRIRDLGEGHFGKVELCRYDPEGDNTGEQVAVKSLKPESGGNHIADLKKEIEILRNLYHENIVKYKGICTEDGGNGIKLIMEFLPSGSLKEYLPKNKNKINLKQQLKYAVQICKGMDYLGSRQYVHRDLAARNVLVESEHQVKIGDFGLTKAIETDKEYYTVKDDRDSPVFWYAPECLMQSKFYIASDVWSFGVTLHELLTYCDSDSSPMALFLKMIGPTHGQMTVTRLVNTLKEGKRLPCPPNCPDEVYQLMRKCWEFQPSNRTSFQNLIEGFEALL
Sequence of Tyk2 kinase activity on STAT4 in NK92 cells (P29597 whole entry): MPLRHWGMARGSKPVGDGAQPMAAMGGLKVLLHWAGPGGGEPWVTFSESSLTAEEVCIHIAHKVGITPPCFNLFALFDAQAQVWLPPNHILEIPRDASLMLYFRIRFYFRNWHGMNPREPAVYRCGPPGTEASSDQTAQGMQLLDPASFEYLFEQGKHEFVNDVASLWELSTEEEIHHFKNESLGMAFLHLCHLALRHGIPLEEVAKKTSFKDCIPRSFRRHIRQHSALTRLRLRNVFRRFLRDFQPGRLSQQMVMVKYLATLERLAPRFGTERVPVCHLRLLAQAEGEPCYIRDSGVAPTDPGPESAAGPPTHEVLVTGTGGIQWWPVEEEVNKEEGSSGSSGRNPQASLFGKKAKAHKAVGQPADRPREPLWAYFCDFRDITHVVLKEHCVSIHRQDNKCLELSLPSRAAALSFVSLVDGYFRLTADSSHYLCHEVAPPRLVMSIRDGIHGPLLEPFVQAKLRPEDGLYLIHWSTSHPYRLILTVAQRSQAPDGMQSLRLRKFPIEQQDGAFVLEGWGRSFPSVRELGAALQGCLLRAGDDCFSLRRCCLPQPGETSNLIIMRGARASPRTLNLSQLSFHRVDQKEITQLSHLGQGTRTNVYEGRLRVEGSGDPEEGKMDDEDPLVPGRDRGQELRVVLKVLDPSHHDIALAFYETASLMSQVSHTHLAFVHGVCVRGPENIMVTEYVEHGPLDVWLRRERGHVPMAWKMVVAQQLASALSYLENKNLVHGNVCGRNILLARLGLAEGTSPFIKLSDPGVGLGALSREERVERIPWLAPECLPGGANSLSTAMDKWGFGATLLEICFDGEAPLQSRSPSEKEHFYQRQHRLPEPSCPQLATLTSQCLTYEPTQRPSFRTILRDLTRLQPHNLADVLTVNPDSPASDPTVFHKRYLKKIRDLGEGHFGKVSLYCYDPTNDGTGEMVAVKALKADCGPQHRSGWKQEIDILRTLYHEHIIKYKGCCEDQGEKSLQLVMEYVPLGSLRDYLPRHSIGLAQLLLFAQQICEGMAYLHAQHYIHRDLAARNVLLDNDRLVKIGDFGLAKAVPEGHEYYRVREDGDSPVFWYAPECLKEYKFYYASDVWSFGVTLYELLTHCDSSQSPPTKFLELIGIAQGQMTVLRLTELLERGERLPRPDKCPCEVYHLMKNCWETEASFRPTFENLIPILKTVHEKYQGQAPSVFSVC

Row | Structure (SMILES) | IC50 [1] [nM] | IC50 ([2]; JAK2 JH1, ADP-Glo) [nM] | IC50 [3] [nM] | IC50 [4] [nM] | IC50 ([5]; TYK2 JH1, ADP-Glo) [nM] | IC50 ([6]; JAK1 JH1, ADP-Glo) [nM] | IC50 ([7]; JAK3 JH1, ADP-Glo) [nM] | IC50 ([2]; JH1 kinase domain, ADP-Glo) [nM] | IC50 ([5]; JH1 kinase domain, ADP-Glo) [nM] | IC50 ([6]; JH1 kinase domain, ADP-Glo) [nM] | IC50 ([7]; JH1 kinase domain, ADP-Glo) [nM]
1 | C[C@@H]1CN(c2ccnn3cc(-c4cncc(F)c4)cc23)C(=O)[C@]1(C#N)C1CC1 [Example 84, (3R,4S)-3-cyclopropyl-1-(6-(5-fluoropyridin-3-yl)pyrrolo[1,2-b]pyridazin-4-yl)-4-methyl-2-oxopyrrolidine-3-carbonitrile] | > 10000 |  | 5000 to 10000 | > 100 |  |  |  | 1000 to 5000 | 5 to 20 | 100 to 1000 | 100 to 1000
2 | COc1cc(-c2cc3c(N4CC[C@](C#N)(C5CC5)C4=O)ccnc3[nH]2)ccn1 [Example 5, (R)-3-cyclopropyl-1-(2-(2-methoxypyridin-4-yl)-1H-pyrrolo[2,3-b]pyridin-4-yl)-2-oxopyrrolidine-3-carbonitrile] | > 10000 |  | 5000 to 10000 | > 100 |  |  |  | 100 to 1000 | > 100 | 1000 to 5000 | 1000 to 5000
3 | Cc1cc(-c2cc3c(N4CC[C@@](C#N)(C5CC5)C4=O)ccnn3c2)on1 [Example 11, (S)-3-cyclopropyl-1-(6-(3-methylisoxazol-5-yl)pyrrolo[1,2-b]pyridazin-4-yl)-2-oxopyrrolidine-3-carbonitrile] | > 10000 |  | > 10000 | > 100 |  |  |  | 1000 to 5000 | 20 to 50 | 1000 to 5000 | 100 to 1000
4 | Cc1nn(C)cc1-c1cc2c(N3C[C@@H](C)[C@@](C#N)(C4CC4)C3=O)ccnn2c1 [Example 165, (3R,4S)-3-cyclopropyl-1-(6-(1,3-dimethyl-1H-pyrazol-4-yl)pyrrolo[1,2-b]pyridazin-4-yl)-4-methyl-2-oxopyrrolidine-3-carbonitrile] | 5000 to 10000 |  | 1000 to 5000 | 20 to 50 |  |  |  | 100 to 1000 | < 5 | 100 to 1000 | 100 to 1000
5 | C[C@@H]1CN(c2ccnn3cc(-c4cnn(S(C)(=O)=O)c4)cc23)C(=O)[C@]1(C#N)C1CC1 [Example 163, (3R,4S)-3-cyclopropyl-4-methyl-1-(6-(1-(methylsulfonyl)-1H-pyrazol-4-yl)pyrrolo[1,2-b]pyridazin-4-yl)-2-oxopyrrolidine-3-carbonitrile] | 5000 to 10000 |  | 1000 to 5000 | > 100 |  |  |  | 100 to 1000 | < 5 | 100 to 1000 | 100 to 1000
6 | C[C@@H]1CN(c2nc(-c3cnc4c(c3)CC(=O)N4)cn3nccc23)C(=O)[C@]1(C#N)C1CC1 [Example 205, (3R,4S)-3-cyclopropyl-4-methyl-2-oxo-1-(6-(2-oxo-2,3-dihydro-1H-pyrrolo[2,3-b]pyridin-5-yl)pyrazolo[1,5-a]pyrazin-4-yl)pyrrolidine-3-carbonitrile] | 5000 to 10000 |  | 1000 to 5000 | > 100 |  |  |  | < 100 | < 5 | < 100 | < 100
7 | C[C@@H]1CN(c2ccnn3cc(-c4cnc5[nH]ncc5c4)cc23)C(=O)[C@]1(C#N)C1CC1 [Example 75, (3R,4S)-1-(6-(1H-pyrazolo[3,4-b]pyridin-5-yl)pyrrolo[1,2-b]pyridazin-4-yl)-3-cyclopropyl-4-methyl-2-oxopyrrolidine-3-carbonitrile] | > 10000 |  | 1000 to 5000 | 50 to 100 |  |  |  | 100 to 1000 | < 5 | < 100 | 100 to 1000
8 | Cc1cncc(-c2cc3c(N4C[C@@H](C)[C@@](C#N)(C5CC5)C4=O)ccnn3c2)c1 [Example 71, (3R,4S)-3-cyclopropyl-4-methyl-1-(6-(5-methylpyridin-3-yl)pyrrolo[1,2-b]pyridazin-4-yl)-2-oxopyrrolidine-3-carbonitrile] | > 10000 |  | 1000 to 5000 | > 100 |  |  |  | 100 to 1000 | 5 to 20 | 100 to 1000 | 100 to 1000
9 | Cn1cc(-c2cc3c(N4CC[C@@](C#N)(C5CC5)C4=O)ccnn3c2)cn1 [Example 9, (S)-3-cyclopropyl-1-(6-(1-methyl-1H-pyrazol-4-yl)pyrrolo[1,2-b]pyridazin-4-yl)-2-oxopyrrolidine-3-carbonitrile] | 5000 to 10000 |  | 1000 to 5000 | > 100 |  |  |  | 100 to 1000 | 5 to 20 | 100 to 1000 | 100 to 1000

The remaining lines, values ahead:

Row | IC50 [1] [nM] | IC50 ([2]; JAK2 JH1, ADP-Glo) [nM] | IC50 [3] [nM] | IC50 [4] [nM] | IC50 ([5]; TYK2 JH1, ADP-Glo) [nM] | IC50 ([6]; JAK1 JH1, ADP-Glo) [nM] | IC50 ([7]; JAK3 JH1, ADP-Glo) [nM] | IC50 ([2]; JH1 kinase domain, ADP-Glo) [nM] | IC50 ([5]; JH1 kinase domain, ADP-Glo) [nM] | IC50 ([6]; JH1 kinase domain, ADP-Glo) [nM] | IC50 ([7]; JH1 kinase domain, ADP-Glo) [nM] | Structure (SMILES)
10 | 100 to 1000 | < 100 | 100 to 1000 | 50 to 100 | < 5 | < 100 | < 100 |  |  |  |  | CO[C@H]1C[C@H](n2cc(-c3cn4ncc(F)c4c(N4C[C@@H](C)[C@@](C#N)(C5CC5)C4=O)n3)cn2)C1 [Example 299, (3R,4S)-3-cyclopropyl-1-(3-fluoro-6-(1-((1r,3R)-3-methoxycyclobutyl)-1H-pyrazol-4-yl)pyrazolo[1,5-a]pyrazin-4-yl)-4-methyl-2-oxopyrrolidine-3-carbonitrile]
11 | 100 to 1000 | < 100 | 100 to 1000 | 20 to 50 | < 5 | < 100 | < 100 |  |  |  |  | C[C@@H]1CN(c2nc(-c3cnn(-c4cccnc4)c3)cn3nccc23)C(=O)[C@]1(C#N)C1CC1 [Example 294, (3R,4S)-3-cyclopropyl-4-methyl-2-oxo-1-(6-(1-(pyridin-3-yl)-1H-pyrazol-4-yl)pyrazolo[1,5-a]pyrazin-4-yl)pyrrolidine-3-carbonitrile]
12 | 1000 to 5000 |  | 100 to 1000 | 50 to 100 |  |  |  | 100 to 1000 | < 5 | < 100 | < 100 | C[C@@H]1CN(c2nc(-c3cnn(C45CC(C4)C5)c3)cn3ncc(F)c23)C(=O)[C@]1(C#N)C1CC1 [Example 207, (3R,4S)-1-(6-(1-(bicyclo[1.1.1]pentan-1-yl)-1H-pyrazol-4-yl)-3-fluoropyrazolo[1,5-a]pyrazin-4-yl)-3-cyclopropyl-4-methyl-2-oxopyrrolidine-3-carbonitrile]
13 | 5000 to 10000 | 100 to 1000 | 1000 to 5000 | > 100 | < 5 | 100 to 1000 | 100 to 1000 |  |  |  |  | C[C@@H]1CN(c2ccnc3cc(-c4cnn(C5CC5)c4)oc23)C(=O)[C@]1(C#N)C1CC1 [Example 347, (3R,4S)-3-cyclopropyl-1-(2-(1-cyclopropyl-1H-pyrazol-4-yl)furo[3,2-b]pyridin-7-yl)-4-methyl-2-oxopyrrolidine-3-carbonitrile]
14 | 1000 to 5000 |  | 1000 to 5000 | 50 to 100 |  |  |  | 100 to 1000 | < 5 | 100 to 1000 | 100 to 1000 | C[C@@H]1CN(c2ccnn3cc(-c4cnn(-c5ccncc5)c4)cc23)C(=O)[C@]1(C#N)C1CC1 [Example 160, (3R,4S)-3-cyclopropyl-4-methyl-2-oxo-1-(6-(1-(pyridin-4-yl)-1H-pyrazol-4-yl)pyrrolo[1,2-b]pyridazin-4-yl)pyrrolidine-3-carbonitrile]
15 | 100 to 1000 | < 100 | 100 to 1000 | 20 to 50 | < 5 | < 100 | < 100 |  |  |  |  | C[C@@H]1CN(c2nc(-c3cnn([C@H]4C[C@H](C#N)C4)c3)cn3ncc(F)c23)C(=O)[C@]1(C#N)C1CC1 [Example 293, (3R,4S)-1-(6-(1-((1r,3R)-3-cyanocyclobutyl)-1H-pyrazol-4-yl)-3-fluoropyrazolo[1,5-a]pyrazin-4-yl)-3-cyclopropyl-4-methyl-2-oxopyrrolidine-3-carbonitrile]
16 | 1000 to 5000 |  | 1000 to 5000 | 50 to 100 |  |  |  | < 100 | < 5 | < 100 | < 100 | C[C@@H]1CN(c2nc(-c3cnn([C@H]4CCOC4)c3)cn3ncc(F)c23)C(=O)[C@]1(C#N)C1CC1 [Example 191, (3R,4S)-3-cyclopropyl-1-(3-fluoro-6-(1-((S)-tetrahydrofuran-3-yl)-1H-pyrazol-4-yl)pyrazolo[1,5-a]pyrazin-4-yl)-4-methyl-2-oxopyrrolidine-3-carbonitrile]
